From patent US9296741B2, “Bromodomain inhibitors” (priority 2012, dated 2016) come the findings set out here.

Data set [1] can be described thus: Human liver microsome stability assay. In kind it is in vitro ADME. The following applies: both sexes, human, microsomes, pH 7.4. (In general: Liver microsomes are vesicles of endoplasmic reticulum, rich in cytochrome P450 enzymes.)
In data set [2] the target is human BRD4 second bromodomain (BDII_E352-M457) (Homo sapiens (Human), UniProt O60885). As to the kind of experiment: TR-FRET bromodomain binding assay, BRD4 second bromodomain. A general note: Time-resolved FRET reads energy transfer from a long-lived donor to a nearby acceptor.
The target of data set [3] is human BRD4 first bromodomain (BDI_K57-E168) (Homo sapiens (Human), UniProt O60885). As to the kind of experiment: TR-FRET bromodomain binding assay, BRD4 first bromodomain.
In data set [4] the test system is breast cancer cell line MX-1. The data set is described as follows: MX-1 cell line proliferation assay. It is filed as cell-based, human. The following applies: Homo sapiens, MX1, 72 h; MX-1 cells, 3-day proliferation, Cell Titer Glo; read-out: Cellular proliferation: EC50. A general note: In ATP-based viability assays light output follows the ATP content of the culture.

A short description of data set [5]: Rat liver microsome stability assay. It is filed as in vitro ADME. The following applies: rat liver microsomes (male Sprague-Dawley), 0.5 μM test compound, pH 7.4, 37° C.; for half-life at 0.5 μM: 0.25 mg/mL microsomal protein, read-out: Stability in rat liver microsomes (t1/2 in minutes).

What is called Ki is the dissociation constant of the complex between target and ligand, obtained from inhibition or displacement. Read a low Ki as a stronger hold on the target.

Regarding `CCS(=O)(=O)c1ccc(OC2CCS(=O)(=O)CC2)c(-c2cn(C)c(=O)c3[nH]ccc23)c1` [Example 265, 4-{2-[(1,1-dioxidotetrahydro-2H-thiopyran-4-yl)oxy]-5-(ethylsulfonyl)phenyl}-6-methyl-1,6-dihydro-7H-pyrrolo[2,3-c]pyridin-7-one], the half-life at 0.5 μM in data set [1] and in data set [5] was above 2 h throughout. The inhibition constant (Ki) in data set [2] was determined as 35.6 nM; in data set [3] it was 9 nM. Also, the EC50 in data set [4] is above 3000 nM.

Take `COC(=O)c1cc2c(-c3ccccc3Oc3ccccc3)cn(C)c(=O)c2n1C` [Example 68, methyl 1,6-dimethyl-7-oxo-4-(2-phenoxyphenyl)-6,7-dihydro-1H-pyrrolo[2,3-c]pyridine-2-carboxylate]: the Ki in data set [2] amounted to 2550 nM; in data set [3], 1700 nM. Moreover, in data set [4], the EC50 was found to be 5900 nM.

In the case of `Cc1cc(OCC2CC2)c(-c2cn(C)c(=O)c3[nH]ccc23)cc1NS(C)(=O)=O` [Example 263, N-[4-(cyclopropylmethoxy)-2-methyl-5-(6-methyl-7-oxo-6,7-dihydro-1H-pyrrolo[2,3-c]pyridin-4-yl)phenyl]methanesulfonamide], the half-life at 0.5 μM is 1.17 h in data set [1] and 1.2 h in data set [5]. Further, the results for the Ki in data set [2] and in data set [3] were 16.3 nM and 8.8 nM, respectively. Also, the EC50 in data set [4] stood at 76.9 nM.

In the case of `Cn1cc(-c2cc(S(C)(=O)=O)ccc2OCCC2CC2)c2cc[nH]c2c1=O` [Example 219, 4-[2-(2-cyclopropylethoxy)-5-(methylsulfonyl)phenyl]-6-methyl-1,6-dihydro-7H-pyrrolo[2,3-c]pyridin-7-one], the results for the Ki in data set [2] and in data set [3] were 2.9 nM and 3.6 nM, respectively. Besides, the EC50 in data set [4] was determined as 17.7 nM.

As for `CCOC(=O)c1cc2c(-c3cc(N(CC)S(C)(=O)=O)ccc3Oc3ccccc3)nn(C)c(=O)c2[nH]1` [Example 76, ethyl 4-{5-[ethyl(methylsulfonyl)amino]-2-phenoxyphenyl}-6-methyl-7-oxo-6,7-dihydro-1H-pyrrolo[2,3-d]pyridazine-2-carboxylate], the Ki in data set [2] was found to be 29.7 nM; in data set [3], 65.8 nM. In addition, the EC50 in data set [4] amounted to 290 nM.

`Cn1cc(-c2cc(NS(=O)(=O)CCF)ccc2Oc2ccc(C#N)cc2)c2cc[nH]c2c1=O` [Example 113, N-[4-(4-cyanophenoxy)-3-(6-methyl-7-oxo-6,7-dihydro-1H-pyrrolo[2,3-c]pyridin-4-yl)phenyl]-2-fluoroethanesulfonamide]: the inhibitory constant (Ki) in data set [2] was 381 nM; in data set [3], 47.4 nM. Besides, in data set [4], the EC50 was above 3000 nM.

Turning to `CCS(=O)(=O)N(Cc1ccccn1)c1ccc(Oc2ccc(F)cc2F)c(-c2cn(C)c(=O)c3[nH]ccc23)c1` [Example 342, N-[4-(2,4-difluorophenoxy)-3-(6-methyl-7-oxo-6,7-dihydro-1H-pyrrolo[2,3-c]pyridin-4-yl)phenyl]-N-(pyridin-2-ylmethyl)ethanesulfonamide], the half-life at 0.5 μM was 0.0333 h in data set [1] and 0.0833 h in data set [5]. In addition, the inhibitory constant (Ki) was found to be 11.5 nM in data set [2] and 71.9 nM in data set [3]. Also, the EC50 in data set [4] was 510 nM.

On to `Cn1cc(-c2cc([N+](=O)[O-])ccc2Oc2ccccc2)c2cc[nH]c2c1=O` [Example 2, 6-methyl-4-(5-nitro-2-phenoxyphenyl)-1,6-dihydro-7H-pyrrolo[2,3-c]pyridin-7-one], for which the Ki in data set [2] came out at 178 nM; in data set [3] it was 529 nM. In data set [4], the EC50 came to 860 nM.

`CCS(=O)(=O)N(CCN1CCCC1=O)c1ccc(Oc2ccc(F)cc2F)c(-c2cn(C)c(=O)c3[nH]ccc23)c1` [Example 344, N-[4-(2,4-difluorophenoxy)-3-(6-methyl-7-oxo-6,7-dihydro-1H-pyrrolo[2,3-c]pyridin-4-yl)phenyl]-N-[2-(2-oxopyrrolidin-1-yl)ethyl]ethanesulfonamide]: the Ki in data set [2] turned out to be 136 nM; in data set [3] it was 430 nM. Besides, in data set [4], the EC50 worked out at 636 nM.

Turning to `CCNC(=O)c1cc2c(-c3cc(NS(C)(=O)=O)ccc3Oc3ccccc3)nn(C)c(=O)c2[nH]1` [Example 81, N-ethyl-6-methyl-4-{5-[(methylsulfonyl)amino]-2-phenoxyphenyl}-7-oxo-6,7-dihydro-1H-pyrrolo[2,3-d]pyridazine-2-carboxamide], the Ki in data set [2] turned out to be 0.99 nM; in data set [3], 9.5 nM. The EC50 in data set [4] worked out at 103 nM.

Take `Cn1cc(-c2cc(S(C)(=O)=O)ccc2OCC2CCC2)c2cc[nH]c2c1=O` [Example 234, 4-[2-(cyclobutylmethoxy)-5-(methylsulfonyl)phenyl]-6-methyl-1,6-dihydro-7H-pyrrolo[2,3-c]pyridin-7-one]: the Ki was 3.4 nM in data set [2] and 3 nM in data set [3]. For the same molecule, the EC50 in data set [4] came to 15.9 nM.

On to `CCS(=O)(=O)Nc1ccc(Oc2ccc(C#N)cc2)c(-c2cn(C)c(=O)c3[nH]ccc23)c1` [Example 90, N-[4-(4-cyanophenoxy)-3-(6-methyl-7-oxo-6,7-dihydro-1H-pyrrolo[2,3-c]pyridin-4-yl)phenyl]ethanesulfonamide], for which the Ki was 6.8 nM in data set [2] and 4 nM in data set [3]. For the same molecule, the EC50 in data set [4] stood at 16.8 nM.

Consider `CCS(=O)(=O)Nc1ccc(OCc2cc(C)nn2C)c(-c2cn(C)c(=O)c3[nH]ccc23)c1` [Example 143, N-{4-[(1,3-dimethyl-1H-pyrazol-5-yl)methoxy]-3-(6-methyl-7-oxo-6,7-dihydro-1H-pyrrolo[2,3-c]pyridin-4-yl)phenyl}ethanesulfonamide], for which the Ki was 107 nM in data set [2] and 22.3 nM in data set [3]. In data set [4], the EC50 was found to be 370 nM.

Regarding `CN1CCC(NC(=O)c2ccc(Oc3ccc(F)cc3F)c(-c3cn(C)c(=O)c4[nH]ccc34)c2)C1=O` (stereo not drawn) [Example 53, 4-(2,4-difluorophenoxy)-3-(6-methyl-7-oxo-6,7-dihydro-1H-pyrrolo[2,3-c]pyridin-4-yl)-N-(1-methyl-2-oxopyrrolidin-3-yl)benzamide], the values for the Ki in data set [2] and in data set [3] were 5.4 nM and 62.2 nM, respectively. Further, the EC50 in data set [4] is 76.5 nM.

For `Cn1cc(-c2cc(S(C)(=O)=O)ccc2Oc2ccc(F)cc2F)c2cc(COc3cccnc3)[nH]c2c1=O` [Example 289, 4-[2-(2,4-difluorophenoxy)-5-(methylsulfonyl)phenyl]-6-methyl-2-[(pyridin-3-yloxy)methyl]-1,6-dihydro-7H-pyrrolo[2,3-c]pyridin-7-one], the inhibitory constant (Ki) in data set [2] was determined as 310 nM; in data set [3], 12.4 nM. Moreover, in data set [4], the EC50 was above 3000 nM.

For the molecule `Cn1cc(-c2cc(NS(C)(=O)=O)ccc2Oc2ccccc2C#N)c2cc[nH]c2c1=O` [Example 25, N-[4-(2-cyanophenoxy)-3-(6-methyl-7-oxo-6,7-dihydro-1H-pyrrolo[2,3-c]pyridin-4-yl)phenyl]methanesulfonamide], the Ki in data set [2] amounted to 3.6 nM; in data set [3], 3 nM. Also, the EC50 in data set [4] is 56.2 nM.

As for `Cn1cc(-c2cc(NS(C)(=O)=O)ccc2Oc2ccccc2)c2cc(CO)[nH]c2c1=O` [Example 89, N-{3-[2-(hydroxymethyl)-6-methyl-7-oxo-6,7-dihydro-1H-pyrrolo[2,3-c]pyridin-4-yl]-4-phenoxyphenyl}methanesulfonamide], the values for the Ki in data set [2] and in data set [3] were 2.1 nM and 1.6 nM, respectively. Also, the EC50 in data set [4] turned out to be 25.2 nM.

Regarding `CNS(=O)(=O)c1ccc(NCC2CC2)c(-c2cn(C)c(=O)c3[nH]ccc23)c1` [Example 239, 4-[(cyclopropylmethyl)amino]-N-methyl-3-(6-methyl-7-oxo-6,7-dihydro-1H-pyrrolo[2,3-c]pyridin-4-yl)benzenesulfonamide], the figures for the Ki in data set [2] and in data set [3] were 2.4 nM and 2.8 nM, respectively. Further, the EC50 in data set [4] is 10.1 nM.

Regarding `CCOC(=O)c1ccc(Oc2ccccc2)c(-c2cn(C)c(=O)c3[nH]ccc23)c1` [Example 9, ethyl 3-(6-methyl-7-oxo-6,7-dihydro-1H-pyrrolo[2,3-c]pyridin-4-yl)-4-phenoxybenzoate], in data set [4], the EC50 came to 113 nM. Besides, the “Stability in rat liver microsomes (t1/2 in minutes)” value in data set [5] ([…] microsomal protein) was 1 min.

Turning to `CCS(=O)(=O)N(CCOC)c1ccc(Oc2ccc(F)cc2F)c(-c2cn(C)c(=O)c3[nH]ccc23)c1` [Example 341, N-[4-(2,4-difluorophenoxy)-3-(6-methyl-7-oxo-6,7-dihydro-1H-pyrrolo[2,3-c]pyridin-4-yl)phenyl]-N-(2-methoxyethyl)ethanesulfonamide], the Ki in data set [2] came to 81.7 nM; in data set [3] it was 295 nM. The EC50 in data set [4] amounted to 622 nM.

Turning to `CC1CCC(Oc2ccc(S(C)(=O)=O)cc2-c2cn(C)c(=O)c3[nH]ccc23)CC1` (stereo not drawn) [Example 233, 6-methyl-4-{2-[(4-methylcyclohexyl)oxy]-5-(methylsulfonyl)phenyl}-1,6-dihydro-7H-pyrrolo[2,3-c]pyridin-7-one], the Ki in data set [2] is 1.5 nM; in data set [3], 2.2 nM. Also, the EC50 in data set [4] is 6.9 nM.

Turning to `Cn1cc(-c2cc(S(C)(=O)=O)ccc2OC2CCCC2)c2cc[nH]c2c1=O` [Example 216, 4-[2-(cyclopentyloxy)-5-(methylsulfonyl)phenyl]-6-methyl-1,6-dihydro-7H-pyrrolo[2,3-c]pyridin-7-one], the Ki in data set [2] and in data set [3] was 1.8 nM throughout. Moreover, the EC50 in data set [4] was 6.6 nM.

With `Cn1cc(-c2cc(Cn3cccn3)ccc2Oc2ccccc2)c2cc[nH]c2c1=O` [Example 30, 6-methyl-4-[2-phenoxy-5-(1H-pyrazol-1-ylmethyl)phenyl]-1,6-dihydro-7H-pyrrolo[2,3-c]pyridin-7-one], the EC50 in data set [4] came out at 562 nM.
